This is an account of results in US20240041898A9, “NEUROSTEROIDS AND ENANTIOMERS THEREOF FOR THE PREVENTION AND TREATMENT OF NEURODEGENERATIVE CONDITIONS” (priority 2019, published 2024).

The test system of assay [1] is pressure-loaded ex vivo rat retinas. It counts as cell-based. To be noted: 75 mmHg; for NDS (neuronal damage score) / NDS, Average: 0-4 scale; for NDS (neuronal damage score) / NFLT vs. RT (%) / Damaged cells in GCL: 24 h, mean±SD; for NDS (neuronal damage score) / NDS, Average / Damaged cells in GCL / NFLT, Average / Damaged cell, Average: neurosteroid 1 μM; for NDS, Average / NFLT, Average / Damaged cell, Average: Average of 9; for axonal swelling in the nerve fiber layer (NFL), light micrographs: 1 μM; for NFLT vs. RT (%): neurosteroid 1 μM (Picro 1 μM, 3-MA 10 mM where named); for Damaged cell, Average: GCL. The method, then: (§1) Rat ex vivo Eyecup Preparation—Rat ex vivo eyecups were prepared from 28-32 day old male Sprague-Dawley rats (Charles River Laboratories International Inc., Wilmington, MA). The anterior half of the enucleated eyes was carefully removed to make eyecup preparations. Eyecups were placed at the bottom of a 100 ml glass beaker filled with aCSF (artificial cerebrospinal fluid) containing (in mM): 124 NaCl, 5 KCl, 2 MgSO4, 2 CaCl2, 1.25 NaH2PO4, 22 NaHCO3, and 10 glucose, and incubated at 30° C. for 24 hours using a closed pressure-loading system (FIG. 1C). pH was maintained at 7.35 to 7.40. In the closed-pressure system, a glass beaker with the eyecup was placed at the bottom of an acrylic pressure chamber (2,000 ml volume). A 95% O2-5% CO2 gas mixture was delivered through disposable plastic tubing with an infusion valve and a control dial on the lid of the pressure chamber and an air filter (Cat #SLGP033RS, Merck Millipore, Billerica, MA). The plastic tubing delivering the gas terminated 1 cm above the bottom of the beaker.
(§2) Acutely prepared eyecups were incubated in gassed aCSF for at least 1 h at 30° C. before pressure loading. In some experiments, AlloP (1 μM), ent-AlloP (1 μM), and 3-MA (10 mM) were dissolved in aCSF at the time of experiment and administered by bath perfusion. Eyecup preparations were treated with these drugs for 1 h at 30° C. before pressure loading. For pressure loading, the 95% O2-5% CO2 gas mixture was infused until the pressure reading given by a manometer reached the appropriate level. The pressure was then locked by adjusting the control dial of the effusion valve, and monitored continuously for 24 h at 30° C.
Data analysis of morphometry—The middle portion of the retina was examined, greater than 1,200 μm away from the center of the optic disc along the inner limiting membrane (ILM). The nerve fiber layer thickness (NFLT) was measured by light microscopy along 5 lines perpendicular to the pigment epithelium at a distance of 15 μm from each other around 1,200 μm away from the center of the optic disc. The average NFLT was determined in 9 different light micrographs taken from 5 eyecup samples in each condition, divided by total retinal thickness, and mean±standard deviation (%) was analyzed and compared with control.
The density of degenerated cells characterized by nuclear chromatin clumping or necrosis in the GCL was determined by counting 9 fields of 500 μm length in light micrographs taken from the block of the middle retinal part 950 to 1450 μm away from the center of the optic disc.
The severity of neuronal damage was assessed by light microscopy using a neuronal damage score (NDS). The NDS was determined in 9 different light micrographs taken from 5 eyecup samples in each condition. The NDS rates neuronal damage in the inner nuclear layer (INL) and the inner plexiform layer (IPL) on a 0-4 scale with 0 signifying no neuronal damage and 4 indicating very severe damage. Criteria used in establishing the degree of neuronal damage included the extent of cytoplasmic swelling in the IPL and the number of neurons in the INL showing signs of severe cytoplasmic swelling and coarse clumping of nuclear chromatin. The highest NDS rating (4) is given when the IPL discloses apparent spongiform appearance due to dendritic swelling and when most cell bodies in the INL show severe cytoplasmic swelling and coarse clumping of nuclear chromatin. If the damage is of a lesser degree, a rating of 3 is given. NDS 2 is assigned when cell bodies in the INL are sporadically swollen. […] Fine dendritic swelling in a limited area of the IPL without damage in the INL is described by NDS 1.
NFLT, density of degenerated cells in the GCL, and NDS were determined as the measurement of 10 different areas from three eyes per experimental condition. These morphometrical parameters were assessed by three raters, who remained unaware of the experimental condition. […]

Another assay concerns TUNEL-positive RGCs. As to the kind of experiment: Ex vivo pressure-loaded retinas, TUNEL staining (apoptosis). The assay is classed as cell-based, rat. Particulars: 75 mmHg, 1 μM, single values. The method, then:
Rat ex vivo Eyecup Preparation—Rat ex vivo eyecups were prepared from 28-32 day old male Sprague-Dawley rats (Charles River Laboratories International Inc., Wilmington, MA). The anterior half of the enucleated eyes was carefully removed to make eyecup preparations. Eyecups were placed at the bottom of a 100 ml glass beaker filled with aCSF (artificial cerebrospinal fluid) containing (in mM): 124 NaCl, 5 KCl, 2 MgSO4, 2 CaCl2, 1.25 NaH2PO4, 22 NaHCO3, and 10 glucose, and incubated at 30° C. for 24 hours using a closed pressure-loading system (FIG. 1C). pH was maintained at 7.35 to 7.40. […]
Acutely prepared eyecups were incubated in gassed aCSF for at least 1 h at 30° C. before pressure loading. […] For pressure loading, the 95% O2-5% CO2 gas mixture was infused until the pressure reading given by a manometer reached the appropriate level. The pressure was then locked by adjusting the control dial of the effusion valve, and monitored continuously for 24 h at 30° C.
Apoptosis—To visualize apoptotic cells, a DeadEnd™ Colorimetric TUNEL (TdT-mediated dUTP Nick-End Labeling) System (Promega, Madison, WI) was used according to the manufacturer's instructions. […] After the length of each retinal section was measured (Image-Pro Plus software), the cells were counted in the whole section length and the number of cells was normalized per 200 μm of retinal section. […]

A further assay concerns LC3-II. Description: Ex vivo pressure-loaded retinas, Western blot of LC3-II. The assay is classed as cell-based, rat. Particulars: ex vivo; for LC3-II expression (FIG. 2Q), Average / LC3-II expression (FIG. 2Q), individual experiments 1-4: relative units, control = 1.00, normalized to β-actin. How it is done: as §1, §2
Western Blot Analysis—At the end of each experiment, the posterior segments of the eye were placed on a flat cutting surface and immersed in ice-cold aCSF. With a surgical blade, the retina was carefully and gently detached from the sclera with a fine forceps. The isolated retinas were frozen at −80° C. Retinas were then homogenized in lysis buffer solution (CelLytic MT; Sigma-Aldrich, Inc.) with protease inhibitor cocktail (Sigma-Aldrich, Inc.), prepared according to the manufacturer's instructions. The tissue extracts were ultrasonicated and clarified by centrifugation at 12,000 g for 20 minutes at 4° C. The protein concentrations in supernatants were assayed (Quant-iT assay kit; Invitrogen Corp., Carlsbad, CA). Twenty micrograms of retinal extract were subjected to SDS polyacrylamide gel electrophoretic analysis. The proteins were then transferred to a PVDF. Immunoblots by polyclonal rabbit anti-LC3B antibody (MBL Life Science) or anti-SQSTMl/p62 mouse monoclonal antibody (Abcam) were visualized using WesternBreeze Chemiluminescent Immunodetection system (Invitrogen) with the exposure time to autoradiograph film (MXJB Plus; Kodak, Rochester, NY) adjusted to avoid over- or undersaturation. Precision Plus Protein™ Western Standards (Bio-Rad, Hercules, CA) followed by Precision Protein™ strep Tactin-AP conjugate (Bio-Rad) was used for a molecular marker of LC3. MagicMark™ XP Western Protein Standard (Invitrogen, Carlsbad, CA) was used for a molecular marker of p62. Immunoblot data are normalized to β-actin levels in the same sample.
The density of Western blot bands was quantified using Image-Pro Plus software. Quantification was adjusted to protein expression at 10 mmHg after normalization to the β-actin band at each pressure, and the relative gray-scale value was calculated by densitometric analysis of the obtained bands. At least four independent experiments were performed for each condition, and the results are presented as relative units numerically. Differences in expression levels were evaluated using Wilcoxon Rank-Sum Test, Tukey's or Dunnett's multiple comparison test. Sample numbers were four to five per each experimental condition.
For orientation: A western blot detects proteins with antibodies after separation by electrophoresis.

Molecules are shown by their SMILES. Where “and” joins values, the source holds several entries; their conditions need not be identical. Identical values can stand only once.

As for `CC(=O)[C@@H]1CC[C@@H]2[C@H]3CC[C@@H]4C[C@@H](O)CC[C@@]4(C)[C@@H]3CC[C@]21C` [ent-AlloP, ent-allopregnanolone], in assay [1], the “NDS (neuronal damage score)” value worked out at 0.2 ± 0.4; the “NDS, Average” value was 0.2; the “axonal swelling in the nerve fiber layer (NFL), light micrographs” value is reported as “substantially inhibited”; the “NFLT vs. RT (%)” value is given as 1.6 ± 0.6%. Moreover, in assay [1], the “Damaged cells in GCL” value is reported as 1.9 ± 1.2 per 250 μm of retina; the “NFLT, Average” value was 1.6%; the “Damaged cell, Average” value is listed as 1.9. The “TUNEL Staining (number of TUNEL-positive RGCs), individual areas 1-5” value in the assay on TUNEL-positive RGCs was 10 per 200 μm of retina section and 1 per 200 μm of retina section and 0 per 200 μm of retina section (2×) and 2 per 200 μm of retina section. The “LC3 expression after 3-MA treatment (FIG. 3F), Average” value in the assay with LC3-II (75 mmHg, 1 μM ent-AlloP, 10 mM 3-MA, relative, ent-AlloP + 3-MA = 1.00, Average of 4) is recorded as 9.00. Also, the “LC3 expression after 3-MA treatment (FIG. 3F), individual experiments 1-4” value in the assay on LC3-II (75 mmHg, 1 μM ent-AlloP, 10 mM 3-MA, relative, ent-AlloP + 3-MA = 1.00, single values) was 11.20 and 8.89 and 7.78 and 8.11. Also, the “LC3-II expression (FIG. 2Q), Average” value with LC3-II (Average of 4) turned out to be 5.25. Further, the “LC3-II expression (FIG. 2Q), individual experiments 1-4” value in the assay with LC3-II (single values) is 6.14 and 5.17 and 4.48 and 5.22.

As to `CC(=O)[C@H]1CC[C@H]2[C@@H]3CC[C@H]4C[C@H](O)CC[C@]4(C)[C@H]3CC[C@]12C` [AlloP, allopregnanolone], in assay [1], the “NDS (neuronal damage score)” value worked out at 0.2 ± 0.4; the “NDS, Average” value was determined as 0.2; the “axonal swelling in the nerve fiber layer (NFL), light micrographs” value is recorded as “attenuated”; the “NFLT vs. RT (%)” value amounted to 1.5 ± 0.6%. Besides, in assay [1], the “Damaged cells in GCL” value was 2.0 ± 1.7 per 250 μm of retina; the “NFLT, Average” value is given as 1.5%; the “Damaged cell, Average” value was 2.0. For the same compound, the “TUNEL Staining (number of TUNEL-positive RGCs), individual areas 1-5” value in the assay on TUNEL-positive RGCs is 7 per 200 μm of retina section and 0 per 200 μm of retina section (3×) and 2 per 200 μm of retina section. In addition, in the assay with LC3-II (Average of 4), the “LC3-II expression (FIG. 2Q), Average” value is 3.62. The “LC3-II expression (FIG. 2Q), individual experiments 1-4” value with LC3-II (single values) was 4.31 and 3.47 and 3.34 (2×).
